The text below walks through data of PMC5901408 (Pest Management Science, 2017).

Assay [1] has as its target T1, ZmEPSPS (Zea mays, UniProt A0A1D6NVZ6, P168A/T164I).
T1 sequence (A0A1D6NVZ6 63-506 T164I/P168A): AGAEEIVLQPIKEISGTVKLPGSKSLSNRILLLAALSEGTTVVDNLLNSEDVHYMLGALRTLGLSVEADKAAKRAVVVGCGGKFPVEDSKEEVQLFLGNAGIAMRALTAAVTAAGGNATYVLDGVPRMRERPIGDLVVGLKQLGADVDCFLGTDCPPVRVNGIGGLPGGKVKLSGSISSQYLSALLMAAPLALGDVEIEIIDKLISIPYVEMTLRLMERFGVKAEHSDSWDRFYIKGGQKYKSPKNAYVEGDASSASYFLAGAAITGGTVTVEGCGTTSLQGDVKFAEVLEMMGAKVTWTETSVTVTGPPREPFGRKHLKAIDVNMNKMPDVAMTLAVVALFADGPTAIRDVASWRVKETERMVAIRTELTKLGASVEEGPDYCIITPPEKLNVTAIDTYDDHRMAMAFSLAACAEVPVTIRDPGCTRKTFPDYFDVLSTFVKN
The assay is described as follows: EPSPS enzyme activity assay, glyphosate titration. The format is biochemical.

Assay [2] addresses T2, ZmEPSPS (Zea mays, UniProt A0A1D6NVZ6).
T2 sequence (A0A1D6NVZ6 63-506): T1 sequence (A0A1D6NVZ6 63-506 T164I/P168A) with I102T, A106P
Nature of the assay: EPSPS enzyme activity assay, glyphosate titration. The format is biochemical.

SMILES strings stand for the structures. Positions count from the first letter of the chain named.

On to `O=C(O)CNCP(=O)(O)O` [glyphosate], for which the IC50 at ZmEPSPS [1] amounted to 19.5 ± 2.8 mM; against ZmEPSPS [2], 0.0139 ± 0.0035 mM.
